Test results: article PMC9423820, “Melittin-derived peptides exhibit variations in cytotoxicity and antioxidant, anti-inflammatory and allergenic activities” (Animal Cells and Systems, 2022)
Where no end group is shown, it is not given here.

Assays:
[1] = system: RBL-2H3 cells; experiment: β-Hexosaminidase release (degranulation) assay; assay type: cell-based, rat; set-up: key: +, active; -, inactive; conditions: Figure 4B summary
Description: The β-hexosaminidase release assay was performed as previously described. RBL-2H3 cells (5 × 10^4 cells/well) were seeded in 96-well plates and incubated for 24 h. The medium was removed, and the cells were washed twice with siraganian buffer (119 mM NaCl, 5 mM KCl, 5.6 mM glucose, 0.4 mM MgCl2, 25 mM PIPES, 40 mM NaOH, 1 mM CaCl2, and 0.1% BSA, pH 7.2), and then incubated in 100 μL siraganian buffer supplemented with compound 48/80 (Sigma-Aldrich, St. Louis, MO, USA), melittin, or melittin-derived peptides for 1 h. Compound 48/80 was used as a positive control. The reaction was terminated by incubation at 4 °C for 10 min. The fluorescence of β-hexosaminidase in the supernatant was measured with a β-hexosaminidase activity assay kit (Cell Biolabs, USA) using a 2104 EnVision multilabel plate reader (PerkinElmer, USA) at […]. The relative fluorescence units of β-hexosaminidase release were calculated by subtracting the fluorescence intensity of the control group from that of the experimental group.

[2] = system: IκBα phosphorylation in RAW 264.7 cells; experiment: Immunoblot of phospho-IκBα in LPS-stimulated RAW 264.7 cells; assay type: cell-based, murine; conditions: RAW 264.7, 24 h pretreatment (melittin 1.25 μM; P1 2.5 μM; P2 indicated concentrations), LPS 1 μg/mL 1 h, n = 3
Description: RAW 264.7 cells (1 × 10^5 cells/well) were seeded in a 6-well plate and incubated for 24 h. Medium containing melittin or melittin-derived peptides was added, and the plates were incubated for 24 h. Thereafter, LPS was added to the medium at a final concentration of 1 μg/mL, followed by incubation for 1 h. To prepare protein samples, the medium was completely removed by aspiration, and the cells were washed with cold PBS and then lysed with lysis buffer [10 mM Tris-HCl (pH 7.5), 100 mM NaCl, 1 mM EDTA, 1 mM EGTA, 1% Triton X-100, 10% glycerol, and 0.1% SDS] with a protease inhibitor cocktail (Roche, Switzerland). The protein samples were sonicated and centrifuged at 16,000 × g for 10 min. The supernatant was then transferred to a new tube and used for immunoblot analysis. The protein samples were separated using sodium dodecyl sulfate-polyacrylamide gel electrophoresis (SDS-PAGE), and the separated proteins were transferred onto a nitrocellulose membrane (0.45 μm, Merck Millipore, USA). […] The unbound antibodies were washed with PBS-T, and the antibodies bound to the nitrocellulose membrane were detected using the SuperSignal system (SuperSignal; Thermo Fisher Scientific), using horseradish peroxidase-conjugated secondary antibodies (Abcam, Cambridge, UK).

[3] = ABTS radical scavenging assay; assay type: biochemical; set-up: key to Anti-oxidant activity (summary): +, active; -, inactive; conditions: for antioxidant activity (ABTS radical scavenging), in words: 4 min reaction, absorbance 650 nm, resveratrol as positive control, n = 3; for Anti-oxidant activity (summary): Figure 4B summary, ABTS radical scavenging
Description: The antioxidant activities of melittin and melittin-derived peptides were measured using the 2,2'-azino-bis(3-ethylbenzothiazoline-6-sulfonic acid) (ABTS) radical scavenging assay. ABTS^+ radical solution was prepared by mixing equal volumes of 7 mM ABTS solution with 2.4 mM persulfate solution and allowing them to react in the dark at 25 °C for 24 h. Before this reaction, the ABTS^+ radical solution was diluted with distilled water to obtain an absorbance of 0.7 ± 0.01 units at 650 nm. Melittin and melittin-derived peptides (20 µL each) at various concentrations were then reacted with 80 µL of ABTS^+ radical solution for 4 min in the dark, and absorbance was measured at 650 nm using an EMax Plus microplate reader (Molecular Devices, San Jose, CA, USA). ABTS^+ radical scavenging activity was calculated using the following formula: ABTS+ radical scavenging activity (%) = [1 − (Abssample − Absblank of sample) / Abscontrol] × 100, where Abscontrol is the absorbance of ABTS^+ radical solution diluted in water, Abssample is the absorbance of ABTS^+ radical solution mixed with melittin or melittin-derived peptides, and Absblank of sample is the absorbance of water mixed with melittin or melittin-derived peptides. All experiments were performed in triplicates (n = 3).

[4] = system: TNF-α, IL-6, IL-1β mRNA expression in RAW 264.7 cells; experiment: qRT-PCR of inflammatory cytokine mRNA in LPS-stimulated RAW 264.7 cells; assay type: cell-based, murine; set-up: key to Anti-inflammatory activity (summary): +, active; -, inactive; conditions: for Anti-inflammatory activity (summary): Figure 4B summary, LPS-stimulated RAW 264.7 cells
Description: RAW 264.7 cells (1 × 10^5 cells/well) were seeded in 6-well plates and incubated for 24 h (Ahmed et al. [2020]). Next, culture medium with melittin or melittin-derived peptides was added to the plates, and they were incubated for 24 h. Thereafter, lipopolysaccharide (LPS) was added to the medium at a final concentration of 1 μg/mL, followed by incubation for 6 h. The medium was completely removed, the cells were washed with cold PBS and lysed with 1 mL of RiboEx (GeneAll, Korea), and RNA was extracted using a Hybrid-R RNA purification kit (GeneAll). To synthesize cDNA, RNA was quantified using a Nabi UV/Vis nanospectrophotometer (MicroDigital, Korea), and 1 μL of random hexamer (100 pmol/μL) and 1 μL of dNTP mix (10 mM) were added to each RNA sample (1 μg). The total volume was adjusted to 10 μL using DEPC-treated water. The mixture was subjected to heating at 65 °C for 5 min and immediately cooled on ice. Thereafter, 1 μL M-MLV reverse transcriptase (Promega), 4 μL 5X M-MLV RT reaction buffer (Promega), 1 μL RNase inhibitor (Enzynomics, Korea), and 4 μL DEPC-treated water were added to each RNA sample, and the mixture was incubated at 25 °C for 10 min and then at 50 °C for 1 h.
The mRNA expression levels of inflammatory cytokines were analyzed using qRT-PCR. The reaction mixture contained 10 μL of 2X Prime Q-master Mix (GENET BIO, Korea), 1.5 μL of 10 pmol/μL forward primer, 1.5 μL of 10 pmol/μL reverse primer, 5 μL of DEPC-treated water, and 2 μL of cDNA (1/10 dilution); qRT-PCR was performed using AriaMx (Agilent, USA) as per the following conditions: 40 cycles of denaturation at 95 °C for 20 s, annealing at 58 °C for 20 s, and elongation at 72 °C for 20 s. The primers used for the qRT-PCR are listed in Supplementary 1.

[5] = system: BEAS-2B cells; experiment: MTS cell viability assay (CellTiter 96 Aqueous One), BEAS-2B; assay type: cell-based, human; set-up: key to Cytotoxicity (summary): +, active; -, inactive; conditions: 24 h; for Cytotoxicity (summary): Figure 4B summary, MTS assay, BEAS-2B and HeLa cells
Excerpt: Human pulmonary bronchial epithelial BEAS-2B, human epithelial cervix carcinoma HeLa, murine macrophage RAW 264.7, and rat basophilic leukemia mast RBL-2H3 cells were purchased from American Type Culture Collection (ATCC, VA, USA). BEAS-2B cells were maintained in bronchial epithelial basal medium (BEBM; Lonza, Basel, Switzerland). HeLa, RAW 264.7, and RBL-2H3 cells were maintained in DMEM supplemented with 10% heat-inactivated fetal bovine serum (Welgene, Gyeongsangbuk-do, Korea) and 1% penicillin and streptomycin (Welgene) at 37 °C in a humidified atmosphere of 5% CO2. Melittin and its derived peptides (Figure 1A) were synthesized by Peptron, Inc. (Daejeon, Korea).
The effect of melittin and melittin-derived peptides on cell viability was evaluated using the CellTiter 96^R Aqueous One Solution Cell Proliferation Assay (Promega, Madison, WI, USA), according to the manufacturer’s instructions (Cambronero-Urena et al. [2021]). BEAS-2B and HeLa cells were seeded (3,000 cells/well) in 96-well plates and incubated for 24 h. Culture medium containing melittin or melittin-derived peptides was added to the plates, and they were incubated for 24 h. Thereafter, 20 μL of MTS reagent was added, and absorbance was measured at 490 nm using a microplate reader (Molecular Devices EMax Plus). The formula used to calculate the cell viability is as follows: Cell viability (%)={(A Sample−A [Blank]) / (A [Control])−A [Blank])}×100, Where A is the absorbance for a given wavelength.

| Compound | Allergenic activity (summary) [1] | effect on LPS-induced IκBα phosphorylation [2] | antioxidant activity (ABTS radical scavenging), in words [3] | Anti-oxidant activity (summary) [3] | Anti-inflammatory activity (summary) [4] | inhibition of mRNA expression of inflammatory cytokines (TNF-α, IL-6, IL-1β) ([4]; RAW 264.7, 1.25 μM, 24 h pretreatment, LPS 1 μg/mL 6 h, qRT-PCR, n = 3) | cellular activity (cell viability) ([5]; BEAS-2B, 2.5 μM, MTS, n = 3) | concentration showing strong cytotoxicity ([5]; BEAS-2B, MTS) | Cytotoxicity (summary) [5] |
| --- | --- | --- | --- | --- | --- | --- | --- | --- | --- |
| CC[C@H](C)[C@H](NC(=O)CN)C(=O)NCC(=O)N[C@@H](C)C(=O)N[C@H](C(=O)N[C@@H](CC(C)C)C(=O)N[C@@H](CCCCN)C(=O)N[C@H](C(=O)N[C@@H](CC(C)C)C(=O)N[C@H](C(=O)N[C@H](C(=O)NCC(=O)N[C@@H](CC(C)C)C(=O)N1CCC[C@H]1C(=O)N[C@@H](C)C(=O)N[C@@H](CC(C)C)C(=O)N[C@H](C(=O)N[C@@H](CO)C(=O)N[C@@H](Cc1c[nH]c2ccccc12)C(=O)N[C@H](C(=O)N[C@@H](CCCCN)C(=O)N[C@@H](CCCNC(=N)N)C(=O)N[C@@H](CCCCN)C(=O)N[C@@H](CCCNC(=N)N)C(=O)N[C@@H](CCC(N)=O)C(=O)N[C@@H](CCC(N)=O)C(N)=O)[C@@H](C)CC)[C@@H](C)CC)[C@@H](C)O)[C@@H](C)O)C(C)C)C(C)C [Melittin] | + | decreased slightly | comparable to that of resveratrol | + | + | significant inhibition | 75% | ≥ 5 µM | + |
| P3: melittin-derived peptide composed of C-terminal 11 amino acids (LISWIKRKRQQ; ends and bridges not checked; UniProt P01501 59-69, looked up, fragment) |  |  |  | + | - |  |  |  | - |
| P4: melittin-derived peptide consisting of nine amino acids of the N-terminal of melittin (GIGAVLKVL; Melittin; UniProt P01501 44-52, looked up, fragment) |  |  | did not show antioxidant activity | - | - |  |  |  | - |
